From US20220227707A1, “COMPOUNDS AND COMPOSITIONS FOR TREATING CONDITIONS ASSOCIATED WITH NLRP ACTIVITY” (Novartis AG, priority 2019, published 2022)

These molecules were tested on IL-1β production in PMA-differentiated THP-1 cells (assay: IL-1β production in PMA-differentiated THP-1 cells stimulated with gramicidin (hTHP-1 assay)). Conditions: Average IC50, hTHP-1 assay containing 2% fetal bovine serum; Table 10, class symbols.
Type: cell-based, human
Method: Procedure 1: IL-1β Production in PMA-Differentiated THP-1 Cells Stimulated with Gramicidin
THP-1 cells were purchased from the American Type Culture Collection and sub-cultured according to instructions from the supplier. Cells were cultured in complete RPMI 1640 (containing 10% heat inactivated FBS, penicillin (100 units/ml) and streptomycin (100 μg/ml)), and maintained in log phase prior to experimental setup. Prior to the experiment, compounds were dissolved in dimethyl sulfoxide (DMSO) to generate a 30 mM stock. The compound stock was first pre-diluted in DMSO to 3, 0.34, 0.042 and 0.0083 mM intermediate concentrations and subsequently spotted using Echo550 liquid handler into an empty 384-well assay plate to achieve desired final concentration (e.g. 100, 33, 11, 3.7, 1.2, 0.41, 0.14, 0.046, 0.015, 0.0051, 0.0017 μM). DMSO was backfilled in the plate to achieve a final DMSO assay concentration of 0.37%. The plate was then sealed and stored at room temperature until required.
THP-1 cells were treated with PMA (Phorbol 12-myristate 13-acetate) (20 ng/ml) for 16-18 hours. On the day of the experiment the media was removed and adherent cells were detached with trypsin for 5 minutes. Cells were then harvested, washed with complete RPMI 1640, spun down, and resuspended in RPMI 1640 (containing 2% heat inactivated FBS, penicillin (100 units/ml) and streptomycin (100 μg/ml). The cells were plated in the 384-well assay plate containing the spotted compounds at a density of 50,000 cells/well (final assay volume 50 μl). Cells were incubated with compounds for 1 hour and then stimulated with gramicidin (5 μM) (Enzo) for 2 hours. Plates were then centrifuged at 340 g for 5 min. Cell free supernatant ([…]) was collected using a 96-channel PlateMaster (Gilson) and the production of IL-1β was evaluated by HTRF (cisbio). The plates were incubated for 18 h at 4° C. and read using the preset HTRF program (donor emission at 620 nm, acceptor emission at 668 nm) of the SpectraMax i3x spectrophotometer (Molecular Devices, software SoftMax 6). A vehicle only control and a dose titration of CRID3 (100-0.0017 μM) were run concurrently with each experiment.
Procedure 2: […] Production in PMA-Differentiated THP-1 Cells Stimulated with Gramicidin
THP-1 cells were purchased from the American Type Culture Collection and sub-cultured according to instructions from the supplier. Prior to experiments, cells were cultured in complete RPMI 1640 (containing 10% heat inactivated FBS, penicillin (100 units/ml) and streptomycin (100 μg/ml)), and maintained in log phase prior to experimental setup. Prior to the experiment THP-1 were treated with PMA (Phorbol 12-myristate 13-acetate) (20 ng/ml) for 16-18 hours. Compounds were dissolved in dimethyl sulfoxide (DMSO) to generate a 30 mM stock. On the day of the experiment the media was removed and adherent cells were detached with trypsin for 5 minutes. Cells were then harvested, washed with complete RPMI 1640, spun down, resuspended in RPMI 1640 (containing 2% heat inactivated FBS, penicillin (100 units/ml) and streptomycin (100 μg/ml). The cells were plated in a 384-well plate at a density of 50,000 cells/well (final assay volume 50 μl). Compounds were first dissolved in assay medium to obtain a 5× top concentration of 500 μM. 10 step dilutions (1:3) were then undertaken in assay medium containing 1.67% DMSO. 5× compound solutions were added to the culture medium to achieve desired final concentration (e.g. 100, 33, 11, 3.7, 1.2, 0.41, 0.14, 0.046, 0.015, 0.0051, 0.0017 μM). Final DMSO concentration was at 0.37%. Cells were incubated with compounds for 1 hour and then stimulated with gramicidin (5 μM) (Enzo) for 2 hours. Plates were then centrifuged at 340 g for 5 min. Cell free supernatant (40 μL) was collected using a 96-channel PlateMaster (Gilson) and the production of IL-1β was evaluated by HTRF (cisbio). A vehicle only control and a dose titration of CRID3 (100-0.0017 μM) were run concurrently with each experiment. […]

IC50 [µM]	Structure (SMILES)
5 to 30	CC(CN(C)C)CS(N)(=O)=NC(=O)Nc1c2c(cc3c1CCC3)CCC2 (stereo not shown) [Compound 123, 3-(dimethylamino)-N′-((1,2,3,5,6,7-hexahydro-s-indacen-4-yl)carbamoyl)-2-methylpropane-1-sulfonimidamide]

Same assay, conditions: Average IC50, hTHP-1 assay containing 2% fetal bovine serum; Table 10, numeric values

IC50 [µM]	Structure (SMILES)
> 30	NS(=O)(=NC(=O)Nc1c2c(cc3c1CCC3)CCC2)C1CCCC1 (stereo not shown) [Compound 152]
> 30	CC(C)c1cc(F)cc(C(C)C)c1CC(=O)N=S(N)(=O)C1CCCC1 (stereo not shown) [Compound 306]
> 30	CC(CN(C)C)CS(N)(=O)=NC(=O)Nc1c2c(cc3c1CCC3)CCC2 (single isomer, unassigned) [Compound 127, 3-(dimethylamino)-N′-((1,2,3,5,6,7-hexahydro-s-indacen-4-yl)carbamoyl)-2-methylpropane-1-sulfonimidamide]

Same assay, conditions: Homo sapiens, THP-1, Average IC50, hTHP-1 assay containing 2% fetal bovine serum; Table 10, class symbols

IC50 [µM]	Structure (SMILES)
1 to 5	COC(=O)CCS(=O)(=O)NC(=O)Cc1c2c(cc3c1CCC3)CCC2 [Compound 504]
5 to 30	NS(=O)(=NC(=O)Nc1c2c(cc3c1CCC3)CCC2)C1CC1 (single isomer, unassigned) [Compound 154]
5 to 30	CC(C)c1cc(Cl)cc(C(C)C)c1NC(=O)NS(=O)(=O)CC(=O)c1ccsc1 [Compound 403]

Same assay, conditions: Homo sapiens, THP-1, Average IC50, hTHP-1 assay containing 2% fetal bovine serum; Table 10, numeric values

IC50 [µM]	Structure (SMILES)
> 100	CC(C)c1cc(F)cc(C(C)C)c1CC(=O)NS(=O)(=O)Cc1ccc(CN)cc1 [Compound 507]
> 100	CC(C)c1cc(F)cc(C(C)C)c1CC(=O)NS(=O)(=O)Cc1cccc(C(C)(C)O)c1 [Compound 502]
> 100	CC(C)c1cc(F)cc(C(C)C)c1CC(=O)NS(=O)(=O)Cc1ccc(C(=O)O)cc1 [Compound 518]
> 100	CC(C)c1cc(F)cc(C(C)C)c1CC(=O)NS(=O)(=O)CC(=O)O [Compound 503]
> 97.1	CC(C)c1ncc(CS(=O)(=O)NC(=O)Cc2c(C(C)C)cc(F)cc2C(C)C)s1 [Compound 505]
> 100	CC(C)c1cc(F)cc(C(C)C)c1CC(=O)NS(=O)(=O)CCCC(=O)O [Compound 512]
